Test results taken from patent publication US10138274B2, “Crystal of cyclic peptide compound, preparation method for same and uses thereof” (SHANGHAI TECHWELL BIOPHARMACEUTICAL CO., LTD, priority 2014, dated 2018).
Numbered stars: 1 amine (or outer) side, 2 acyl side, 3 side chain; on linkers, the order of the positions; unused ones are H or OH. Bridge positions count the residues as written; N and C are the ends. Square brackets hold non-standard residues; d marks the D form. Peptide text beside a SMILES is read from it. * marks the point of attachment. hTyr(3S-OH,4S-OH,3'-OSO3H) = N[C@H](C(=O)O)[C@H](O)[C@@H](O)c1ccc(O)c(OS(=O)(=O)O)c1; Orn(4R-OH,5R-OH) = O=C([C@H](C[C@@H](O)[C@@H](O)N[*:3])N[*:1])[*:2]; Pro(3S-OH,4S-Me) = C[C@H]1CN[C@H](C(=O)O)[C@H]1O; X1 = CCCCCOc1ccc(-c2cc(-c3ccc(C(=O)*)cc3)no2)cc1; Gln(3R-OH) = NC(=O)C[C@@H](O)[C@H](N)C(=O)O; Hyp = O=C(O)[C@@H]1C[C@@H](O)CN1

Test: Purity and stability test: samples sealed at 25° C. for 30 days, purity by HPLC
Format: physicochemical
Conditions: for Purity of initial sample: before storage, HPLC purity (baseline of the stability test); for Purity of sample after stored at 25° C. for 30 days: sealed, HPLC purity
Description: High performance liquid chromatography (HPLC) is a common method for determining the purity of a compound, wherein a liquid is used as the mobile phase and a high-pressure transfusion system is used for pumping the mobile phase, such as single solvents with different polarities, a mixture of solvents at different proportions, or buffers, into a column packed with a stationary phase. Each component is separated in the column, and then enters into a detector for detection, thereby analyzing a sample. In the present invention, HPLC is used for determining the purity of the compound of formula I and studying the stability of a sample. The HPLC method is as follows:
Analysis Column: YMC-ODS 250×4.6 mm, 5 μm;
Mobile phase: acetonitrile:phosphate buffer (pH 3.0)=45:70;
Column temperature: 35° C.;
Diluent: aqueous phosphate buffer;
Detection wavelength: 210 nm;
In this Example, the purity and stability of the samples obtained in Comparative Examples and Examples were compared. The method used is as follows:
Crystals A-C of the compound of formula I prepared in Examples 2, 11 and 15, the crystal of B82 type obtained in Comparative Example 1 and the amorphous solid obtained in Example 1 were taken respectively and sealed at 25° C. for 30 days. And then the content of impurities in the sample was analyzed. Results of comparing the stability of crystals A-C of the compound of formula I according to the present invention, the crystal of B82 type and the amorphous solid are shown in the following table: […]

Row | Compound | Purity of initial sample | Purity of sample after stored at 25° C. for 30 days | stability compared with the B82-type crystal and the amorphous solid (result in words)
1 | CCCCCOc1ccc(-c2cc(-c3ccc(C(=O)N[C@H]4C[C@@H](O)[C@@H](O)NC(=O)[C@@H]5[C@@H](O)[C@@H](C)CN5C(=O)[C@H]([C@H](O)CC(N)=O)NC(=O)[C@H]([C@H](O)[C@@H](O)c5ccc(O)c(OS(=O)(=O)[O-])c5)NC(=O)[C@@H]5C[C@@H](O)CN5C(=O)[C@H]([C@@H](C)O)NC4=O)cc3)no2)cc1.[Na+] [Amorphous solid, Sodium 5-[(1S,2S)-2-[(3S,6S,9S,11R,15S,18S,20R,21R,24S,25S,26S)-3-[(R)-2-carbamoyl-1-hydroxyethyl]-11,20,21,25-tetrahydroxy-15-[(R)-1-hydroxyethyl]-26-methyl-2,5,8,14,17,23-hexaoxo-18-[4-[5-(4-pentoxyphenyl)isoxazol-3-yl]benzoylamino]-1,4,7,13,16,22-hexaazatricyclo[22.3.0.0^9,13]heptacosan-6-yl]-1,2-dihydroxyethyl]-2-hydroxy phenyl sulfate., reference compound] (X1-[Orn(4R-OH,5R-OH)]T[Hyp][hTyr(3S-OH,4S-OH,3'-OSO3H)][Gln(3R-OH)][Pro(3S-OH,4S-Me)]; lactam 1-C) | 99.38% | 89.27% | 
2 | CCCCCOc1ccc(-c2cc(-c3ccc(C(=O)N[C@H]4C[C@@H](O)[C@@H](O)NC(=O)[C@@H]5[C@@H](O)[C@@H](C)CN5C(=O)[C@H]([C@H](O)CC(N)=O)NC(=O)[C@H]([C@H](O)[C@@H](O)c5ccc(O)c(OS(=O)(=O)[O-])c5)NC(=O)[C@@H]5C[C@@H](O)CN5C(=O)[C@H]([C@@H](C)O)NC4=O)cc3)no2)cc1.[Na+] [B82-type Crystal, Sodium 5-[(1S,2S)-2-[(3S,6S,9S,11R,15S,18S,20R,21R,24S,25S,26S)-3-[(R)-2-carbamoyl-1-hydroxyethyl]-11,20,21,25-tetrahydroxy-15-[(R)-1-hydroxyethyl]-26-methyl-2,5,8,14,17,23-hexaoxo-18-[4-[5-(4-pentoxyphenyl)isoxazol-3-yl]benzoylamino]-1,4,7,13,16,22-hexaazatricyclo[22.3.0.0^9,13]heptacosan-6-yl]-1,2-dihydroxyethyl]-2-hydroxy phenyl sulfate., reference compound] (X1-[Orn(4R-OH,5R-OH)]T[Hyp][hTyr(3S-OH,4S-OH,3'-OSO3H)][Gln(3R-OH)][Pro(3S-OH,4S-Me)]; lactam 1-C) | 99.50% | 96.98% | 
3 | CCCCCOc1ccc(-c2cc(-c3ccc(C(=O)N[C@H]4C[C@@H](O)[C@@H](O)NC(=O)[C@@H]5[C@@H](O)[C@@H](C)CN5C(=O)[C@H]([C@H](O)CC(N)=O)NC(=O)[C@H]([C@H](O)[C@@H](O)c5ccc(O)c(OS(=O)(=O)[O-])c5)NC(=O)[C@@H]5C[C@@H](O)CN5C(=O)[C@H]([C@@H](C)O)NC4=O)cc3)no2)cc1.[Na+] [Crystal A, Sodium 5-[(1S,2S)-2-[(3S,6S,9S,11R,15S,18S,20R,21R,24S,25S,26S)-3-[(R)-2-carbamoyl-1-hydroxyethyl]-11,20,21,25-tetrahydroxy-15-[(R)-1-hydroxyethyl]-26-methyl-2,5,8,14,17,23-hexaoxo-18-[4-[5-(4-pentoxyphenyl)isoxazol-3-yl]benzoylamino]-1,4,7,13,16,22-hexaazatricyclo[22.3.0.0^9,13]heptacosan-6-yl]-1,2-dihydroxyethyl]-2-hydroxy phenyl sulfate.] (X1-[Orn(4R-OH,5R-OH)]T[Hyp][hTyr(3S-OH,4S-OH,3'-OSO3H)][Gln(3R-OH)][Pro(3S-OH,4S-Me)]; lactam 1-C) | 99.68% | 99.65% | significantly superior than that of the crystal of B82 type
4 | CCCCCOc1ccc(-c2cc(-c3ccc(C(=O)N[C@H]4C[C@@H](O)[C@@H](O)NC(=O)[C@@H]5[C@@H](O)[C@@H](C)CN5C(=O)[C@H]([C@H](O)CC(N)=O)NC(=O)[C@H]([C@H](O)[C@@H](O)c5ccc(O)c(OS(=O)(=O)[O-])c5)NC(=O)[C@@H]5C[C@@H](O)CN5C(=O)[C@H]([C@@H](C)O)NC4=O)cc3)no2)cc1.[Na+] [Crystal B, Sodium 5-[(1S,2S)-2-[(3S,6S,9S,11R,15S,18S,20R,21R,24S,25S,26S)-3-[(R)-2-carbamoyl-1-hydroxyethyl]-11,20,21,25-tetrahydroxy-15-[(R)-1-hydroxyethyl]-26-methyl-2,5,8,14,17,23-hexaoxo-18-[4-[5-(4-pentoxyphenyl)isoxazol-3-yl]benzoylamino]-1,4,7,13,16,22-hexaazatricyclo[22.3.0.0^9,13]heptacosan-6-yl]-1,2-dihydroxyethyl]-2-hydroxy phenyl sulfate.] (X1-[Orn(4R-OH,5R-OH)]T[Hyp][hTyr(3S-OH,4S-OH,3'-OSO3H)][Gln(3R-OH)][Pro(3S-OH,4S-Me)]; lactam 1-C) | 99.55% | 99.50% | 
5 | CCCCCOc1ccc(-c2cc(-c3ccc(C(=O)N[C@H]4C[C@@H](O)[C@@H](O)NC(=O)[C@@H]5[C@@H](O)[C@@H](C)CN5C(=O)[C@H]([C@H](O)CC(N)=O)NC(=O)[C@H]([C@H](O)[C@@H](O)c5ccc(O)c(OS(=O)(=O)[O-])c5)NC(=O)[C@@H]5C[C@@H](O)CN5C(=O)[C@H]([C@@H](C)O)NC4=O)cc3)no2)cc1.[Na+] [Crystal C, Sodium 5-[(1S,2S)-2-[(3S,6S,9S,11R,15S,18S,20R,21R,24S,25S,26S)-3-[(R)-2-carbamoyl-1-hydroxyethyl]-11,20,21,25-tetrahydroxy-15-[(R)-1-hydroxyethyl]-26-methyl-2,5,8,14,17,23-hexaoxo-18-[4-[5-(4-pentoxyphenyl)isoxazol-3-yl]benzoylamino]-1,4,7,13,16,22-hexaazatricyclo[22.3.0.0^9,13]heptacosan-6-yl]-1,2-dihydroxyethyl]-2-hydroxy phenyl sulfate.] (X1-[Orn(4R-OH,5R-OH)]T[Hyp][hTyr(3S-OH,4S-OH,3'-OSO3H)][Gln(3R-OH)][Pro(3S-OH,4S-Me)]; lactam 1-C) | 99.64% | 99.43% | 
